These results are taken from paper PMC7080406 (eLife, 2020).

Assay [1] has as its target T1, MT2 (Homo sapiens, UniProt P49286).
T1 sequence (P49286 1-362): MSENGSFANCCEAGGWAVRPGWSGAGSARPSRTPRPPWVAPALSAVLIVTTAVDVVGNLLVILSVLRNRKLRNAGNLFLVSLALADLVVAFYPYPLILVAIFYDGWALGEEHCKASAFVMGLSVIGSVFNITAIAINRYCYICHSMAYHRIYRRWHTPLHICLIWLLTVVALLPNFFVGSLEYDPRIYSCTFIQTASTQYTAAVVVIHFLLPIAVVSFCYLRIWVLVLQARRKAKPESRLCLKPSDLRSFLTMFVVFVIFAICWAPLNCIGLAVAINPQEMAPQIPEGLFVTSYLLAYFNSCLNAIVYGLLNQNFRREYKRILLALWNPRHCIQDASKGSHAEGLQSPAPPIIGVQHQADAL
The assay can be described thus: [3H]melatonin competition radioligand binding, MT2 membranes. On the set-up: expressed in transfected cells; host or cells: HEK293T (ATCC CRL-11268), transient transfection. The following applies: read-out: MT2 pKi ± SEM (converted). The method, then:
(§1) The Radioligand binding assays were conducted by the NIMH Psychoactive Drug Screening Program (PDSP). The NIMH PDSP is directed by Bryan L. Roth, MD, PhD, at the University of North Carolina at Chapel Hill, North Carolina, and Program Officer Jamie Driscoll at NIMH, Bethesda, MD. Binding assay procedures and protocols are also available online at http://pdspdb.unc.edu/pdspWeb/?site=assays. […] Assay plates were sealed and incubated for 4 hr at 37°C in a humidified incubator until harvesting. Plates were harvested using vacuum filtration onto 0.3% polyethyleneimine pre-soaked 96-well Filtermat A (PerkinElmer) and washed three times with cold wash buffer (50 mM Tris, pH 7.4). Filters were dried and melted with a scintillation cocktail (Meltilex, PerkinElmer). Radioactivity was counted using a Wallac TriLux Microbeta counter (PerkinElmer). Results were analyzed using GraphPad Prism 7.0.

In assay [2] the target is T2, MT1 wildtype (WT) (Homo sapiens, UniProt P48039).
T2 construct: host or cells: HTLA cells (HEKT based)
The assay can be described thus: Tango β-arrestin recruitment assay, MT1 wildtype. The format is cell-based. The method, then: (§2) In brief, HTLA cells were transiently transfected with receptor TANGO DNA constructs overnight in DMEM with 10% FBS. Transfected cells were then plated into poly-L-Lys coated 384-well plates using DMEM supplemented with 1% dialyzed FBS. After 6 hr incubation, drug dilutions, prepared in DMEM with 1% dFBS, were added for incubation overnight (16–20 hr). Medium and drug solutions were removed, Bright-Glo reagent (20 uL/well) was added for luminescence counting 20 min later. Results were analyzed in GraphPad Prism 7.0.

Assay [3] has as its target T3, MT1 N162Q mutant receptor (Homo sapiens, UniProt P48039, N162Q).
T3 construct: expressed in transfected cells; host or cells: HTLA cells (HEKT based)
Nature of the assay: Tango β-arrestin recruitment assay, MT1 N162Q mutant. The format is cell-based. The method, then: as §2

The target of assay [4] is T1, MT2. Nature of the assay: GloSensor Gi/o-mediated cAMP production inhibition assay, MT2. The format is cell-based. Also noted: expressed in transfected cells; host or cells: HEK293T (ATCC CRL-11268), transient transfection. Particulars: for MT2/MT1 Selectivity: Antilog (log(Emax/EC50) MT2 - log (Emax/EC50) MT1), values below 1 = MT1 selectivity; for EC50: Gi/o mediated; for Emax: MT2, activation compared to melatonin, read-out: MT2 Emax ± SEM; for MT2 LE: ligand efficiency (based on EC50). On the procedure:
(§3) Briefly, HEK293 T cells (as above) were transiently co-transfected with receptor (MT1 or MT2) and GloSensor cAMP (Promega) plasmids overnight, plated in Poly-L-Lysine coated 384-well white clear bottom plates in DMEM + 1% dialyzed FBS. Cells were used for assays at a minimum of 6 hr after plating. Culture medium was first removed and cells were stimulated with drugs in assay buffer (1x HBSS, 20 mM HEPES, 1 mg/ml BSA, 0.1 mg/ml ascorbic acid, pH 7.4) for 15 min at room temperature (this and all the following steps), followed by addition of a mixture of isoproterenol (final of 100 nM) and luciferin (final of 1 mM) for Gi/o-cAMP production inhibition assays and luciferin (final of 1 mM) for Gs-cAMP production assays. The plates were counted for luminescence after 25 min in a luminescence plate reader. Results were analyzed using GraphPad Prism 7.0.

Assay [5] deals with panel of 47 common drug targets (GPCRs, ion-channels and transporters). Nature of the assay: Binding profiling at a panel of 47 common drug targets. The following applies: final concentration of 10 μM. On the procedure:
as §1, with “http://pdspdb.unc.edu/pdspWeb/?site=assays. All the radioligand binding assays were performed using membranes prepared from transiently transfected HEK293T cells (purchased from ATCC, CRL-11268, authenticated by the supplier using morphology, growth characteristics, and STR profiling and certified mycoplasma-free) and in standard binding buffer (50 mM Tris, 10 mM MgCl2, 0.1 mM EDTA, 0.1% BSA, 0.01% ascorbic acid, pH 7.4) as recently reported ([Stauch et al., 2019]).” for “http://pdspdb.unc.edu/pdspWeb/?site=assays.”

Assay [6] concerns the target T4, MT1 (Homo sapiens, UniProt P48039).
T4 construct: expressed in transfected cells; host or cells: HEK293T (ATCC CRL-11268), transient transfection
The assay can be described thus: [3H]melatonin competition radioligand binding, MT1 membranes. The following applies: read-out: MT1 pKi ± SEM (converted). On the procedure: as §1

The target in assay [7] is T4, MT1. Nature of the assay: GloSensor Gi/o-mediated cAMP production inhibition assay, MT1. The format is cell-based. The following applies: for EC50: Gi/o mediated. The method, then:
as §3

Assay [8] deals with T5, MT1 Y281F mutant receptor (Homo sapiens, UniProt P48039, Y281F).
T5 construct: expressed in transfected cells; host or cells: HTLA cells (HEKT based)
The assay can be described thus: Tango β-arrestin recruitment assay, MT1 Y281F mutant. The following applies: normalized individually (basal 0%, maximum 100%); mean ± SEM, minimum of 3 assays; read-out: pEC50, Tango, MT1 Y281F (converted). The assay is classed as cell-based. On the procedure: as §2

The target of assay [9] is T1, MT2. Nature of the assay: Tango β-arrestin recruitment assay, MT2. The assay is classed as cell-based. Also noted: expressed in transfected cells; transient transfection. Particulars: result in words; compared to G-protein. On the procedure: as §2, with “Tango arrestin recruitment assays were carried out according to the previously published procedure [Kroeze et al. (2015)]. In” for “In”

Assay [10] deals with T1, MT2. The assay can be described thus: Bias factor, Gi-cAMP versus Tango (Black and Leff operational model), MT2. The format is cell-based. On the set-up: expressed in transfected cells; host or cells: HEK293T (ATCC CRL-11268), transient transfection. The following applies: G-protein over β-arrestin at MT2; reference melatonin; 10^ΔΔLog(τ/KA). The method, then: Bias factors were estimated according to the published procedure [Kenakin et al. (2012)] with modifications. Briefly, normalized and pooled results were analyzed by fitting the Black and Leff operational model in Prism 7.0 to obtain Log(τ/KA) values for each pathway (Tango and Gi-cAMP). Within each signaling pathway, a difference of Log(τ/KA), ΔLog(τ/KA), between a test compound and selected reference (melatonin in this case) was calculated. For a testing compound, the difference of ΔLog(τ/KA), ΔΔLog(τ/KA), was then obtained between two pathways. The bias factor is 10^ΔΔLog(τ/KA).

Each structure is given as a SMILES string. Several values for one entry are separate records, joined by “and”; a condition that tells them apart may be missing. Equal values may be shown once. Entries after “also recorded” stand apart in the source; their conditions may differ. Read-outs that look alike come from different tables or passages of the source. Some results are limits rather than exact numbers.

T4 sequence (P48039 whole entry): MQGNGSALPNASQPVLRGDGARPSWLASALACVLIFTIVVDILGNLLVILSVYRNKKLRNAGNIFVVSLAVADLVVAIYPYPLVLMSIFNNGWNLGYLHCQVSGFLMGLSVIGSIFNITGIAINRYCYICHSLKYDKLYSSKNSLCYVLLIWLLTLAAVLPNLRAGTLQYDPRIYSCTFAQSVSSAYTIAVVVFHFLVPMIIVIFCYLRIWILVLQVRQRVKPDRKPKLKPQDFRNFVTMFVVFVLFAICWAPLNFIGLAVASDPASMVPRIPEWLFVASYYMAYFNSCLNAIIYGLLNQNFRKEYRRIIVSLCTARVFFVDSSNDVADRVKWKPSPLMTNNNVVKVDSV
T3 sequence (P48039 whole entry N162Q): as the sequence (P48039 whole entry) above, with N162Q counted along it
T2 sequence (P48039 whole entry): as the sequence (P48039 whole entry) above
T5 sequence (P48039 whole entry Y281F): as the sequence (P48039 whole entry) above, with Y281F counted along it

With `COc1cccc(CNc2nc(C3CC3)no2)c1` [Compound 37, 3-cyclopropyl-N-[(3-methoxyphenyl)methyl]-1,2,4-oxadiazol-5-amine], the Ki in [1] is 3550 nM; in [6] it was 8510 nM. Also, the EC50 in assay [2] (normalized individually (basal 0%, maximum 100%), mean ± SEM, minimum of 3 assays, read-out: pEC50, Tango, MT1 WT (converted)) was 4170 nM; in assay [3] (normalized individually (basal 0%, maximum 100%), mean ± SEM, minimum of 3 assays, read-out: pEC50, Tango, MT1 N162Q (converted)), 2240 nM; in assay [4] (read-out: MT2 EC50), 141 nM; in [7] (read-out: MT1 EC50), more than 30000 nM; in assay [8] it was 11700 nM. The “β-arrestin activity at MT1” value in assay [2] (result in words) is given as “substantial β-arrestin activity”. In addition, in assay [3] (Tango), the “increase of potency, MT1 N162Q versus WT” value was 2 fold. Further, the “MT2/MT1 Selectivity” value in assay [4] is on record as more than 1000.0 fold. For the same compound, the Emax in [4] was determined as 61.1 ± 9.1%. For the same compound, in [4], the “MT2 LE” value is 0.53 kcal/mol per non-hydrogen atom. For the same compound, the “binding at panel of 47 common drug targets” value in assay [5] is listed as “did not show any substantial binding”. Moreover, in assay [7] (result in words), the “G-protein (Gi) signaling at MT1” value was “devoid of Gi signaling; also recorded: completely lacks G-protein signaling”.

For the compound `COc1ccnc(N(C)CCNC(C)=O)n1` [Compound 21, N-{2-[(4-methoxypyrimidin-2-yl)(methyl)amino]ethyl}acetamide], the Ki in [1] is 123 nM; in assay [6], 490 nM. Moreover, the “β-arrestin signaling / arrestin recruitment at MT2” value in [9] is given as “dramatically reduced arrestin recruitment; also recorded: marked reduction in β-arrestin signaling compared to G-protein”. Also, in assay [4], the “MT2/MT1 Selectivity” value is 30 fold and 30.6 fold. The EC50 is 0.363 nM in assay [4] (SEM, N = 3, read-out: MT2 pEC50 ± SEM (converted)); 12.3 nM in assay [7] (SEM, N = 3, read-out: MT1 pEC50 ± SEM (converted)); 12 nM in [7] (read-out: MT1 EC50). In addition, the Emax in assay [4] worked out at 86.1 ± 3.2%; in [7] (read-out: MT1 Emax ± SEM), 93.8 ± 2.5%. The “MT2 LE” value in [4] is on record as 0.83 kcal/mol per non-hydrogen atom. Also, the “binding at panel of 47 common drug targets” value in [5] was “did not show any substantial binding”. Further, the “MT1 LE” value in assay [7] (ligand efficiency (based on EC50)) is reported as 0.69 kcal/mol per non-hydrogen atom. Moreover, the bias factor in assay [10] is 15.5.
